Target: human Nav 1.8 (Homo sapiens, UniProt Q9Y5Y9)
Experiment: E-VIPR assay detecting and measuring Nav inhibition properties
Format: cell-based
Conditions: HEK cells expressing a truncated form of human Nav 1.8; compound numbers without "*" (not marked as run in the presence of human serum); read-out: measured IC50 value in the E-VIPR Assay
Method in brief: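 Nav inhibition was read by E-VIPR: cells were electrically stimulated while coumarin/oxonol FRET emissions were recorded. Cells were HEK expressing a truncated human Nav 1.8 and co-transduced with KIR2.1, and were assayed in 25% final human serum.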

Sequence of human Nav 1.8 (Q9Y5Y9 126-399 limits assumed): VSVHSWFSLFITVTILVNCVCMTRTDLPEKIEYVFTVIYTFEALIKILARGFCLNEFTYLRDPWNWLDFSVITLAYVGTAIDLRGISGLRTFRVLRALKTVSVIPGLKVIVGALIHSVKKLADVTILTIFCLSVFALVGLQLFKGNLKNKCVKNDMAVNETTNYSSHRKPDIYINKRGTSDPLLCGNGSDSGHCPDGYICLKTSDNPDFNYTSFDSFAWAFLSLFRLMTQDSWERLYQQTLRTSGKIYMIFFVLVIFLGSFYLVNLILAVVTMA
Sequence of human Nav 1.8 (Q9Y5Y9 660-890 limits assumed): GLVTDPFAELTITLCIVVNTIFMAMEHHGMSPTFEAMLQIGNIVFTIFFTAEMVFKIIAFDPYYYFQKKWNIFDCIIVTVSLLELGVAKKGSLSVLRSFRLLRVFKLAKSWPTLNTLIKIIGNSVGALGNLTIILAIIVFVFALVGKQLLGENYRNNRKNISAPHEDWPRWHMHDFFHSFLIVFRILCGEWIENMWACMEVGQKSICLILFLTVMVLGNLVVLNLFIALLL
Sequence of human Nav 1.8 (Q9Y5Y9 1148-1722 limits assumed): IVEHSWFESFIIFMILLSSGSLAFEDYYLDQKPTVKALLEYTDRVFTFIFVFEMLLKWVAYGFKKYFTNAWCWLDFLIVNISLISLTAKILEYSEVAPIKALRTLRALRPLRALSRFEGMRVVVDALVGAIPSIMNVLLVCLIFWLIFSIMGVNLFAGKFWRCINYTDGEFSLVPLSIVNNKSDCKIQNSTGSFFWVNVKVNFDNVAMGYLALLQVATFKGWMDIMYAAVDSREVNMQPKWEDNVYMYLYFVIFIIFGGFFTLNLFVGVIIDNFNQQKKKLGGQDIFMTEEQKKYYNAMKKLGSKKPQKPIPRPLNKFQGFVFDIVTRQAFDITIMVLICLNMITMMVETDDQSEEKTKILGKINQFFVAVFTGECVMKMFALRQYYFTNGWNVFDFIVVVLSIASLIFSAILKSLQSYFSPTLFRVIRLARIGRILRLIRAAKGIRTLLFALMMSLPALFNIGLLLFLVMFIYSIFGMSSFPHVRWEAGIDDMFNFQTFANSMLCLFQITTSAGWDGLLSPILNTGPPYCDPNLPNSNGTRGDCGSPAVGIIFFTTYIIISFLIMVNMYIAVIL

Row | IC50 [nM] | Compound
1 | 10 to 100 | COc1c([C@H]2[C@H](C(=O)Nc3ccnc(C(=O)NC4CNC4)c3)O[C@@](C)(C(F)(F)F)[C@H]2C)ccc(F)c1F [Compound 236, N-(azetidin-3-yl)-4-((2R,3S,4S,5R)-3-(3,4-difluoro-2-methoxyphenyl)-4,5-dimethyl-5-(trifluoromethyl)tetrahydrofuran-2-carboxamido)picolinamide]
2 | < 10 | COc1c([C@H]2[C@H](C(=O)Nc3ccnc(C(=O)N[C@H]4CCNC4)c3)O[C@@](C)(C(F)(F)F)[C@H]2C)ccc(F)c1F [Compound 238, 4-((2R,3S,4S,5R)-3-(3,4-difluoro-2-methoxyphenyl)-4,5-dimethyl-5-(trifluoromethyl)tetrahydrofuran-2-carboxamido)-N-((S)-pyrrolidin-3-yl)picolinamide]
3 | < 10 | COc1c([C@H]2[C@H](C(=O)Nc3ccnc(C(=O)N4C[C@@H]5C[C@H]4CN5)c3)O[C@@](C)(C(F)(F)F)[C@H]2C)ccc(F)c1F [Compound 240, (2R,3S,4S,5R)-N-(2-((1S,4S)-2,5-diazabicyclo[2.2.1]heptane-2-carbonyl)pyridin-4-yl)-3-(3,4-difluoro-2-methoxyphenyl)-4,5-dimethyl-5-(trifluoromethyl)tetrahydrofuran-2-carboxamide]
4 | < 10 | COc1c([C@H]2[C@H](C(=O)Nc3ccnc(C(=O)N4CCNC(C)(C)C4)c3)O[C@@](C)(C(F)(F)F)[C@H]2C)ccc(F)c1F [Compound 241, (2R,3S,4S,5R)-3-(3,4-difluoro-2-methoxyphenyl)-N-(2-(3,3-dimethylpiperazine-1-carbonyl)pyridin-4-yl)-4,5-dimethyl-5-(trifluoromethyl)tetrahydrofuran-2-carboxamide]
5 | 10 to 100 | COc1c([C@H]2[C@H](C(=O)Nc3ccnc(C(=O)N[C@H]4CNC[C@@H]4OC)c3)O[C@@](C)(C(F)(F)F)[C@H]2C)ccc(F)c1F [Compound 242, 4-((2R,3S,4S,5R)-3-(3,4-difluoro-2-methoxyphenyl)-4,5-dimethyl-5-(trifluoromethyl)tetrahydrofuran-2-carboxamido)-N-((3S,4S)-4-methoxypyrrolidin-3-yl)picolinamide]
6 | < 10 | COc1c([C@H]2[C@H](C(=O)Nc3ccnc(C(=O)N4CCO[C@H]5CNC[C@H]54)c3)O[C@@](C)(C(F)(F)F)[C@H]2C)ccc(F)c1F [Compound 243, (2R,3S,4S,5R)-3-(3,4-difluoro-2-methoxyphenyl)-4,5-dimethyl-N-(2-((4aR,7aS)-octahydropyrrolo[3,4-b][1,4]oxazine-4-carbonyl)pyridin-4-yl)-5-(trifluoromethyl)tetrahydrofuran-2-carboxamide]
7 | 100 to 1000 | COc1c([C@H]2[C@H](C(=O)Nc3ccnc(C(=O)N[C@H]4CNCC[C@H]4OC)c3)O[C@@](C)(C(F)(F)F)[C@H]2C)ccc(F)c1F [Compound 246, 4-((2R,3S,4S,5R)-3-(3,4-difluoro-2-methoxyphenyl)-4,5-dimethyl-5-(trifluoromethyl)tetrahydrofuran-2-carboxamido)-N-((3S,4R)-4-methoxypiperidin-3-yl)picolinamide]
8 | < 10 | COc1c([C@H]2[C@H](C(=O)Nc3ccnc(C(=O)N(C)[C@H]4CNC[C@@H]4OC)c3)O[C@@](C)(C(F)(F)F)[C@H]2C)ccc(F)c1F [Compound 247, 4-((2R,3S,4S,5R)-3-(3,4-difluoro-2-methoxyphenyl)-4,5-dimethyl-5-(trifluoromethyl)tetrahydrofuran-2-carboxamido)-N-((3S,4S)-4-methoxypyrrolidin-3-yl)-N-methylpicolinamide]
9 | < 10 | COC[C@H]1CN(C(=O)c2cc(NC(=O)[C@@H]3O[C@@](C)(C(F)(F)F)[C@@H](C)[C@H]3c3ccc(F)c(F)c3OC)ccn2)CCN1 [Compound 248, (2R,3S,4S,5R)-3-(3,4-difluoro-2-methoxyphenyl)-N-(2-((R)-3-(methoxymethyl)piperazine-1-carbonyl)pyridin-4-yl)-4,5-dimethyl-5-(trifluoromethyl)tetrahydrofuran-2-carboxamide]
10 | < 10 | COc1c([C@H]2[C@H](C(=O)Nc3ccnc(C(=O)N4CCN[C@H](C)C4)c3)O[C@@](C)(C(F)(F)F)[C@H]2C)ccc(F)c1F [Compound 249, (2R,3S,4S,5R)-3-(3,4-difluoro-2-methoxyphenyl)-4,5-dimethyl-N-(2-((R)-3-methylpiperazine-1-carbonyl)pyridin-4-yl)-5-(trifluoromethyl)tetrahydrofuran-2-carboxamide]
11 | < 10 | COc1c([C@H]2[C@H](C(=O)Nc3ccnc(C(=O)N4C[C@@H](C)NC[C@H]4C)c3)O[C@@](C)(C(F)(F)F)[C@H]2C)ccc(F)c1F [Compound 250, (2R,3S,4S,5R)-3-(3,4-difluoro-2-methoxyphenyl)-N-(2-((2R,5R)-2,5-dimethylpiperazine-1-carbonyl)pyridin-4-yl)-4,5-dimethyl-5-(trifluoromethyl)tetrahydrofuran-2-carboxamide]
12 | 10 to 100 | COc1c([C@H]2[C@H](C(=O)Nc3ccnc(C(=O)NC[C@H]4CCCCN4)c3)O[C@@](C)(C(F)(F)F)[C@H]2C)ccc(F)c1F [Compound 251, 4-((2R,3S,4S,5R)-3-(3,4-difluoro-2-methoxyphenyl)-4,5-dimethyl-5-(trifluoromethyl)tetrahydrofuran-2-carboxamido)-N-(((R)-piperidin-2-yl)methyl)picolinamide]
13 | 10 to 100 | COc1c([C@H]2[C@H](C(=O)Nc3ccnc(C(=O)N[C@@H]4CNC[C@H](C)C4)c3)O[C@@](C)(C(F)(F)F)[C@H]2C)ccc(F)c1F [Compound 252, 4-((2R,3S,4S,5R)-3-(3,4-difluoro-2-methoxyphenyl)-4,5-dimethyl-5-(trifluoromethyl)tetrahydrofuran-2-carboxamido)-N-((3S,5R)-5-methylpiperidin-3-yl)picolinamide]
14 | 10 to 100 | CCO[C@H]1CNC[C@@H]1NC(=O)c1cc(NC(=O)[C@@H]2O[C@@](C)(C(F)(F)F)[C@@H](C)[C@H]2c2ccc(F)c(F)c2OC)ccn1 [Compound 253, 4-((2R,3S,4S,5R)-3-(3,4-difluoro-2-methoxyphenyl)-4,5-dimethyl-5-(trifluoromethyl)tetrahydrofuran-2-carboxamido)-N-((3S,4S)-4-ethoxypyrrolidin-3-yl)picolinamide]
15 | < 10 | COc1c([C@H]2[C@H](C(=O)Nc3ccnc(C(=O)N4C[C@H]5C[C@@H]4CN5)c3)O[C@@](C)(C(F)(F)F)[C@H]2C)ccc(F)c1F [Compound 254, (2R,3S,4S,5R)-N-(2-((1R,4R)-2,5-diazabicyclo[2.2.1]heptane-2-carbonyl)pyridin-4-yl)-3-(3,4-difluoro-2-methoxyphenyl)-4,5-dimethyl-5-(trifluoromethyl)tetrahydrofuran-2-carboxamide]
16 | < 10 | COc1c([C@H]2[C@H](C(=O)Nc3ccnc(C(=O)N4C[C@@H](F)[C@@H](N)C4)c3)O[C@@](C)(C(F)(F)F)[C@H]2C)ccc(F)c1F [Compound 255, (2R,3S,4S,5R)-N-(2-((3S,4R)-3-amino-4-fluoropyrrolidine-1-carbonyl)pyridin-4-yl)-3-(3,4-difluoro-2-methoxyphenyl)-4,5-dimethyl-5-(trifluoromethyl)tetrahydrofuran-2-carboxamide]
17 | < 10 | CN[C@H]1CN(C(=O)c2cc(NC(=O)[C@@H]3O[C@@](C)(C(F)(F)F)[C@@H](C)[C@H]3c3ccc(F)c(F)c3OC)ccn2)C[C@@H]1OC [Compound 256, (2R,3S,4S,5R)-3-(3,4-difluoro-2-methoxyphenyl)-N-(2-((3S,4S)-3-methoxy-4-(methylamino)pyrrolidine-1-carbonyl)pyridin-4-yl)-4,5-dimethyl-5-(trifluoromethyl)tetrahydrofuran-2-carboxamide]
18 | < 10 | COc1c([C@H]2[C@H](C(=O)Nc3ccnc(C(=O)N4C[C@H](N)[C@H](OC)C4)c3)O[C@@](C)(C(F)(F)F)[C@H]2C)ccc(F)c1F [Compound 257, (2R,3S,4S,5R)-N-(2-((3S,4R)-3-amino-4-methoxypyrrolidine-1-carbonyl)pyridin-4-yl)-3-(3,4-difluoro-2-methoxyphenyl)-4,5-dimethyl-5-(trifluoromethyl)tetrahydrofuran-2-carboxamide]

Row | Compound | IC50 [nM]
19 | COc1c([C@H]2[C@H](C(=O)Nc3ccnc(C(=O)N4C5CNCC4C5)c3)O[C@@](C)(C(F)(F)F)[C@H]2C)ccc(F)c1F [Compound 237, (2R,3S,4S,5R)-N-(2-(3,6-diazabicyclo[3.1.1]heptane-6-carbonyl)pyridin-4-yl)-3-(3,4-difluoro-2-methoxyphenyl)-4,5-dimethyl-5-(trifluoromethyl)tetrahydrofuran-2-carboxamide] | 10 to 100
20 | COc1c([C@H]2[C@H](C(=O)Nc3ccnc(C(=O)N4CC5CC(C4)N5)c3)O[C@@](C)(C(F)(F)F)[C@H]2C)ccc(F)c1F [Compound 239, (2R,3S,4S,5R)-N-(2-(3,6-diazabicyclo[3.1.1]heptane-3-carbonyl)pyridin-4-yl)-3-(3,4-difluoro-2-methoxyphenyl)-4,5-dimethyl-5-(trifluoromethyl)tetrahydrofuran-2-carboxamide] | < 10
21 | COc1c([C@H]2[C@H](C(=O)Nc3ccnc(C(=O)N4C[C@H]5CC[C@@H](C4)NC5)c3)O[C@@](C)(C(F)(F)F)[C@H]2C)ccc(F)c1F [Compound 244, (2R,3S,4S,5R)-N-(2-((1S,5S)-3,6-diazabicyclo[3.2.2]nonane-3-carbonyl)pyridin-4-yl)-3-(3,4-difluoro-2-methoxyphenyl)-4,5-dimethyl-5-(trifluoromethyl)tetrahydrofuran-2-carboxamide] | < 10
22 | COc1c([C@H]2[C@H](C(=O)Nc3ccnc(C(=O)N4CC5COCC(C4)N5)c3)O[C@@](C)(C(F)(F)F)[C@H]2C)ccc(F)c1F [Compound 245, (2R,3S,4S,5R)-N-(2-(3-oxa-7,9-diazabicyclo[3.3.1]nonane-7-carbonyl)pyridin-4-yl)-3-(3,4-difluoro-2-methoxyphenyl)-4,5-dimethyl-5-(trifluoromethyl)tetrahydrofuran-2-carboxamide] | < 10

Source: patent publication US20250213555A1, “SUBSTITUTED TETRAHYDROFURAN ANALOGS AS MODULATORS OF SODIUM CHANNELS” (VERTEX PHARMACEUTICALS INCORPORATED, priority 2021, published 2025)
